Reference: patent US10167296B2, “Sulfoximine substituted quinazolines for pharmaceutical compositions” (EVOTEC INTERNATIONAL GMBH, priority 2014, dated 2019)

Tests used:
[1] = test system: MNK2 (MNK2a or MNK2b) or MNK1; conditions: cell culture cells transfected with MNK2 (MNK2a or MNK2b) or MNK1; cited from earlier work
[2] = biological target: MNK1a (pre-activated GST-MNK1a) (Homo sapiens (Human), UniProt Q9BUB5); test: MNK1 in vitro kinase assay (assay 2), Z'-LYTE; assay type: biochemical; conditions: for inhibition at 1 µM: compound concentration of 1 μM, read-out: Mnk1 % Inh
From the text: B. MNK1 In Vitro Kinase Assay (Assay 2)
MNK1 Data can be obtained from the MNK1 Z′-LYTE® assay. The MNK1 Z′-LYTE® screening protocol and assay conditions are also described on www.invitrogen.com.
The assay is described as follows:
The Z′-LYTE® biochemical assay employs a fluorescence-based, coupled-enzyme format and is based on the differential sensitivity of phosphorylated and non-phosphorylated peptides to proteolytic cleavage. The peptide substrate is labeled with two fluorophores—one at each end—that make up a FRET pair.
In the primary reaction, the kinase transfers the gamma-phosphate of ATP to a single tyrosine, serine or threonine residue in a synthetic FRET-peptide. In the secondary reaction, a site-specific protease recognizes and cleaves non-phosphorylated FRET-peptides. Phosphorylation of FRET-peptides suppresses cleavage by the Development Reagent. Cleavage disrupts FRET between the donor (i.e., coumarin) and acceptor (i.e., fluorescein) fluorophores on the FRET-peptide, whereas uncleaved, phosphorylated FRET-peptides maintain FRET. A ratiometric method, which calculates the ratio (the Emission Ratio) of donor emission to acceptor emission after excitation of the donor fluorophore at 400 nm, is used to quantitate reaction progress, as shown in the equation below. Emission Ratio=Coumarin Emission(445 nm)/Fluorescein Emission(520 nm)
The inhibition of kinase activity of MNK1a was assessed using pre-activated GST-MNK1a. The 2×MKNK1 (MNK1) mixture is prepared in 50 mM HEPES pH 7.5, 0.01% BRIJ-35, 10 mM MgCl2, 4 mM MnCl2, 1 mM EGTA, 2 mM DTT. The final 10 μL Kinase Reaction consists of 13.5-54 ng MKNK1 (MNK1) and 2 μM Ser/Thr 07 in 50 mM HEPES pH 7.5, 0.01% BRIJ-35, 10 mM MgCl2, 2 mM MnCl2, 1 mM EGTA, 1 mM DTT. After the 1 hour Kinase Reaction incubation, 5 μL of a 1:32768 dilution of Development Reagent A is added.
The Test Compounds are screened in 1% DMSO (final) in the well.
All Peptide/Kinase Mixtures are diluted to a 2×working concentration in the MNK1 Kinase Buffer.
All ATP Solutions are diluted to a 4×working concentration in Kinase Buffer (50 mM HEPES pH 7.5, 0.01% BRIJ-35, 10 mM MgCl2, 1 mM EGTA).
Development Reagent Solution:
The Development Reagent is diluted in Development Buffer
Bar-coded Corning, low volume NBS, 384-well plate (Corning Cat. #3676)
1. 2.5 μL—4×Test Compound
2. 5 μL—2×Peptide/Kinase Mixture
5. 60-minute Kinase Reaction incubation at room temperature
6. 5 μL—Development Reagent Solution
8. 60-minute Development Reaction incubation at room temperature
9. Read on fluorescence plate reader and analyze the data
The following equations are used for each set of data points:
Correction for Background Fluorescence: FISample−FITCFI Ctl Emission Ratio (using values corrected for background fluorescence):Coumarin Emission (445 nm)/Fluorescein Emission (520 nm)
% Phosphorylation (% Phos): 1−((Emission Ratio×F100%)−C100%)/((C0%−C100%)+[Emission Ratio×(F100%−F0%)])*100
% Inhibition: 1−(% PhosSample/% Phos0% Inhibition Ctl)*100 FI=Fluorescence Intensity C100%=Average Coumarin emission signal of the 100% Phos. Control C0%=Average Coumarin emission signal of the 0% Phos. Control F100%=Average Fluorescein emission signal of the 100% Phos. Control F0%=Average Fluorescein emission signal of the 0% Phos. Control
SelectScreen® Kinase Profiling Service uses XLfit from IDBS. The dose response curve is curve fit to model number 205 (sigmoidal dose-response model).

[3] = biological target: MNK2a (pre-activated GST-MNK2a) (Homo sapiens (Human), UniProt Q9HBH9); test: MNK2a in vitro kinase assay (assay 1), ADP-Glo; assay type: biochemical; conditions: read-out: Mnk2 IC50
Experimental: A. MNK2a In Vitro Kinase Assay (Assay 1)
The inhibition of kinase activity of MNK2a was assessed using pre-activated GST-MNK2a. The white, 384-well OptiPlate F plates were purchased from PerkinElmer. The ADP-Glo Kinase Assay (including ultra pure ATP) was purchased from Promega (V9103). Activated MNK2a was obtained as described in WO2011/104340. […] ID No. 5 of WO 2011/104340 by the C-terminal —CONH2 group, was purchased from Thermo Fisher Scientific. All other materials were of highest grade commercially available. Compounds are tested in either serial dilutions or single dose concentrations. The compound stock solutions are 10 mM in 100% DMSO The serial compound dilutions are prepared in 100% DMSO followed by 1:27.3 intermediate dilution in assay buffer. The final DMSO concentration in assay will be <3%.
In the 384-well plates 3 μl of test compound from the intermediate dilution is mixed with 4 μl of the activated MNK2 enzyme (final concentration of 10 nM) and 4 μl of the peptide (final concentration of 25 μM)/ultra pure ATP (final concentration of 20 μM), all dissolved in assay buffer. This step is followed by an incubation time of 90 min, then 10 μl of ADP Glo reagent are added, followed by 40 min of incubation. Then 20 μl of kinase detection reagent are admixed. The plates are sealed and after an incubation period of 30 min, the luminescence signal is measured in an Envision reader to determine the amount of produced ADP. All incubation steps are performed at room temperature.
The assay buffer consists of 20 mM HEPES, 2 mM DTT, 0.01% BSA, 20 mM MgCl2 and 0.1% Pluronic F-127.
The luminescent signal generated is proportional to the ADP concentration produced and is correlated with activated MNK2 activity. The analysis of the data is performed by the calculation of the percentage of ATP consumption of activated MNK2 in the presence of the test compound compared to the consumption of ATP in the presence of activated MNK2 without compound. (RLU(sample)−RLU(low control))*100/(RLU(high value)−RLU(low control))
[RLU=Relative Luminescence Units]
Values of more than 100% CTL are normally related to compound/sample specific physico-chemical properties (e.g. solubility, light absorbance, fluorescence).
IC50 values based on dose response curves are calculated with the AssayExplorer software.

Sequence of MNK2a (pre-activated GST-MNK2a) (Q9HBH9 whole entry): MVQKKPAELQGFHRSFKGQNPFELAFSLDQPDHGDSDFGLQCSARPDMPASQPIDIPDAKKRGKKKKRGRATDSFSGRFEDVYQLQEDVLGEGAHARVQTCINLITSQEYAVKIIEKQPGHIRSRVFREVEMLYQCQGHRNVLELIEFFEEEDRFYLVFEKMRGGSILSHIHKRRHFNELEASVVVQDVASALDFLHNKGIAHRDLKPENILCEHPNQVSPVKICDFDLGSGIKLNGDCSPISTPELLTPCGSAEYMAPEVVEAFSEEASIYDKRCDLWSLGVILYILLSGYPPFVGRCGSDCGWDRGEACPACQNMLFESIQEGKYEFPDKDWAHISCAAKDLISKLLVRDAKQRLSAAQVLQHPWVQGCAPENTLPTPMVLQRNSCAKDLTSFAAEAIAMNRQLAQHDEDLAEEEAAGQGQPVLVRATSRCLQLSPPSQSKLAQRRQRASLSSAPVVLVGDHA
Sequence of MNK1a (pre-activated GST-MNK1a) (Q9BUB5 other isoform, or with tags, fused parts or gaps): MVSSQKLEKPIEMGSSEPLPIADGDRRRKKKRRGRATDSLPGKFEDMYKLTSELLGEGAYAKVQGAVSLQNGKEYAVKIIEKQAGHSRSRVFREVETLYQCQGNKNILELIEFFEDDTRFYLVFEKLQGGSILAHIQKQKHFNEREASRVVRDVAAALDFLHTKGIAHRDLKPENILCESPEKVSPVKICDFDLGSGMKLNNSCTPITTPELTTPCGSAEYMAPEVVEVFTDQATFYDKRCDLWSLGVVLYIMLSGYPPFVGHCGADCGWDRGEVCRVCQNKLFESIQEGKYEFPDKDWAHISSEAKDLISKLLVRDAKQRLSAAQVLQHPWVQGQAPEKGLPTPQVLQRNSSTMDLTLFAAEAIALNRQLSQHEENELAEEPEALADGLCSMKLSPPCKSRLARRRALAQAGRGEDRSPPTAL

Row | Compound | reduction of phosphorylated elF4E [1] | inhibition at 1 µM [2] [%] | IC50 [3] [nM] | IC50 [2] [nM]
1 | Nc1ncnc2n[nH]c(Nc3ccc(F)cc3)c12 [CGP57380] | strong reduction | – | – | –
2 | COc1c(N=S2(=O)CCCC2)cc2ncnc(Nc3ccc(Cl)cc3O[C@H](C)C(=O)NCC(F)(F)F)c2c1C [Example 2.56] | – | 97 | 2.7 | –
3 | COc1c(N=S2(=O)CCC2)cc2ncnc(Nc3cccnc3O[C@@H]3CO[C@@H]4CCO[C@@H]43)c2c1C [Example 2.21] | – | – | 1.9 | 33
4 | COc1c(N=S2(=O)CCC(O)CC2)cc2ncnc(Nc3ccc(F)cc3O[C@@H]3CO[C@@H]4CCO[C@@H]43)c2c1C (stereo partly drawn) [Example 2.04] | – | 105 | 1.2 | –
5 | COc1c(N=S2(=O)CCC2)cc2ncnc(Nc3ccc(F)cc3O[C@H]3CCOC3)c2c1C [Example 2.57] | – | – | 1.1 | 22
